Data reported in patent US8304206B2, “Mass spectrometry assays for identifying compounds that activate deacetylases” (Sirtris Pharmaceuticals, Inc., priority 2005, dated 2012).
Where two headings read alike, the source gives them in different places. No end group written: not given here.

Columns and labels:
NCI-H358 cells [1] = test: Cellular ATP Assay (ATPLite 1Step normalized to AlamarBlue viability); type: cell-based, human; settings: compounds that raised intracellular ATP levels, 48 hours, read-out: ED50 ATP ASSAY
Description: Cellular ATP levels are an indirect measurement of cellular metabolic rates and, by extension, mitochondrial function. […] The ATP assay is combined with a cellular viability assay so that cellular ATP levels can be normalized to viable cells. Cellular ATP levels were measured using the ATPLite 1Step Kit (PerkinElmer) and cellular viability was measured using the cell permeable dye, AlamarBlue™.
The Cellular ATP Assay is a multiplexed assay that measures both ATP levels and viability of a given cell sample. This assay is run in a 96-well Assay Plate and data are reported as the [ATP]/viability for each well in the Assay Plate.
The ATPLite 1Step™ Kit is a single-step luminescent cell-based assay for detection of ATP. The kit contains lyophilized substrate mixture, comprised of D-luciferin and the firefly (Photinus pyralis) enzyme luciferase. Additionally, the kit contains a detergent-based reconstitution buffer that induces the lysis of cellular membranes. The luciferase in the assay mixture catalyzes a reaction between the free cellular ATP and D-luciferin to produce bioluminescence according to the schematic reaction outlined below. […]
The AlamarBlue™ Assay is a single-step assay that utilizes a soluble, non-toxic, cell permeable dye that is added to cell growth media. […] The reduced dye product gives a fluorescent signal which can be monitored with a fluorescence plate reader (excitation 545 nm and emission 575 nm). The amount of fluorescence generated in a given well is proportional to the number of viable cells. […]
In this assay NCI-H358 cells (obtained from the American Tissue Culture Collection, ATCC) were seeded in 96 well microplates (10^4 cells/well). […] Cell microplates were incubated with dye for 2 hours under growth conditions, and fluorescence was subsequently measured using a plate reader. […] Luminescence was then measured using a plate reader. The ATP signal for each well, measured by the luminescence scan, was normalized to its corresponding cell viability value, measured by the fluorescence scan, to generate the average ATP level per viable cell unit (ATP/vCell). […]

Sirt2 = target: T1, Sirt2 (Homo sapiens, UniProt Q8IXJ6); settings: Sirt2, Fluorescent; read-out: Peptide Km; cited from earlier work
T1 sequence (Q8IXJ6 1-389): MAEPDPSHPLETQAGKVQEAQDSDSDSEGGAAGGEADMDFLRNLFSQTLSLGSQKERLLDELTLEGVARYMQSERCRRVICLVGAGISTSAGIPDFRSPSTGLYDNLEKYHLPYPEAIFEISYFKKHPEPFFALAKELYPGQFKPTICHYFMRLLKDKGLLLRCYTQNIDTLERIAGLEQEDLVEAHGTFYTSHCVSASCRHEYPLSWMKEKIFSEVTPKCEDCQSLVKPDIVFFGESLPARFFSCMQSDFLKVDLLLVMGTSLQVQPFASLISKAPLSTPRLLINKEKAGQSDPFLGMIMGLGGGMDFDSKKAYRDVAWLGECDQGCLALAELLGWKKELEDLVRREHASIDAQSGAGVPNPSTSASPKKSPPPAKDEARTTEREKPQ

Sirt3 = target: T2, Sirt3 (Homo sapiens, UniProt Q9NTG7); settings: Sirt3, Fluorescent; read-out: Peptide Km; cited from earlier work
T2 sequence (Q9NTG7 1-399): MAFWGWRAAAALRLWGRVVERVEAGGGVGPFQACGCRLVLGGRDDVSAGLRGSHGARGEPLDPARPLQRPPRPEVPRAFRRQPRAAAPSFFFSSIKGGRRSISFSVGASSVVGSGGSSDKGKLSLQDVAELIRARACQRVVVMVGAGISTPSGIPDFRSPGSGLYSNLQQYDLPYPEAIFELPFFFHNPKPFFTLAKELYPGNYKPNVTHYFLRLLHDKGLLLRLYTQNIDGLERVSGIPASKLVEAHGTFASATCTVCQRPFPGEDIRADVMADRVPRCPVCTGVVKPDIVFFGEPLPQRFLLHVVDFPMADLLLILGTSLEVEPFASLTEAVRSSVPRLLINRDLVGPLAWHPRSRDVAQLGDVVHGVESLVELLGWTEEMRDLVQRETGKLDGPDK

NCI-H358 cells [2] = test: Western blot of mitochondrial mass biomarkers; type: cell-based, human; settings: 48 hours; 0, 1, 10 or 100 uM
Description: Western blots were conducted to correlate an observed increase in cellular ATP levels upon exposure of cells to a sirtuin activating compound to an increase in mitochondrial mass. […] Cell lysates were then prepared and specific mitochondrial proteins were quantitated by western analysis using antibodies specific to the following proteins: Succinate-Ubiquinol Oxidoreductase (Mitochondrial Complex II Protein, mouse monoclonal, InVitrogen, Cat. #A11142); ATP synthase F1F0 (Mitochondrial Complex V Protein, mouse monoclonal, InVitrogen, Cat.# A21350); NADH-Ubiquinol Oxidoreductase (Mitochondrial Complex I Protein, mouse monoclonal, InVitrogen, Cat. #A21344). Normalization was to alpha tubulin using a rabbit polyclonal (Santa Cruz Biotech, Cat # SC-9104). Secondary antibody used for specific protein detection was AlexaFluor 680 conjugated […] IgG (Goat) (Rockland Immunochemicals, Cat.#610-132-121) and for tubulin expression was IRDye 800 goat anti-mouse IgG (InVitrogen Cat. # A21076). Protein quantification was preformed using infrared dye labeled secondary antibodies followed by blot scan using the Licor® Odyssey® scanner.

SIRT1 [3] = target: T3, SIRT1 (Homo sapiens, UniProt Q96EB6); test: Effect of compounds on the Km of SIRT1 for Acetylated Peptide Substrate (mass spectrometry); type: biochemical; settings: vs DMSO Km
T3 sequence (Q96EB6 1-747): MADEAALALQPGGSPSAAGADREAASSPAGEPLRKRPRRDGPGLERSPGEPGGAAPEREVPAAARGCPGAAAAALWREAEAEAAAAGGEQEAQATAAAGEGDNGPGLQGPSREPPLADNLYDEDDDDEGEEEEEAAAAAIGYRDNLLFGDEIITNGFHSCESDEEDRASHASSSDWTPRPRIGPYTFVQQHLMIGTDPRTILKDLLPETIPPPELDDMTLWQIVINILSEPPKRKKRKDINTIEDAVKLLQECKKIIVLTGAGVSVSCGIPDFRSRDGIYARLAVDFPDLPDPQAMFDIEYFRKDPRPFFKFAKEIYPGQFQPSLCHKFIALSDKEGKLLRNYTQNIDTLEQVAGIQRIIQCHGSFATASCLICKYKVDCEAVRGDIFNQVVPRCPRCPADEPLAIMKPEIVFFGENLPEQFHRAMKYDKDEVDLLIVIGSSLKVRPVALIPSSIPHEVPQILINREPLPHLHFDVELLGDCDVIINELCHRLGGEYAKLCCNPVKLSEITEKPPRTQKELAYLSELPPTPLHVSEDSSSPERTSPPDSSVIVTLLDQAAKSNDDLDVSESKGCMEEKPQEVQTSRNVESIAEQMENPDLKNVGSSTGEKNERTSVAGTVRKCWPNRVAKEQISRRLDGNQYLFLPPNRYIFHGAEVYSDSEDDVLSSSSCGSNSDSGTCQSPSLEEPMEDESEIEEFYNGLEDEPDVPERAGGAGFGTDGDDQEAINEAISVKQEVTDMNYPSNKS

SIRT1 [4] = target: T3, SIRT1; test: DMSO tolerance of SIRT1 mass spectrometry assay; type: biochemical
Description: To determine the tolerance of the SIRT1 mass spectrometry assay for DMSO, a rate based experiment was performed at multiple concentrations of DMSO.
Formic acid (10 μL of 10%) was added to all of the wells in column 1 of the 96 well assay plate. Eight concentrations of DMSO (40%, 20%, 10%, 5.0%, 2.5%, 1.25%, 0.625%, and 0.313%) were prepared in buffer containing 50 mM Tris HCl pH 8.0, 137 mM, NaCl, 2.7 mM, KCl, 1 mM MgCl2, 5 mM DTT, and 0.05% BSA.
This DMSO titration was prepared by making a 2000 μL solution of 40% DMSO in 50 mM Tris HCl pH 8.0, 137 mM, NaCl, 2.7 mM, KCl, 1 mM MgCl2, 5 mM DTT, and 0.05%. BSA in well A1 of a Costar 2 mL 96 well Assay Block. Dilution Working Solution (1000 μL; 50 mM Tris HCl pH 8.0, 137 mM, NaCl, 2.7 mM, KCl, 1 mM MgCl2, 5 mM DTT, and 0.05% BSA) was added to wells B1, C1, D1, E1, F1, G1 and H1. 1000 μL of the 40% DMSO in buffer solution was transferred from A1 to […] and the solution was mixed 5 times. This process was repeated with wells in column 1 until well H1 was reached.
Using an 8 channel multi-pipette, 50 μl was transferred from column 1 of the 2 mL 96 well assay block to all columns of a 96 well assay plate.
25 μL of Enzyme Working Solution (40 nM SIRT1, 50 mM Tris HCl pH 8.0, 137 mM, NaCl, 2.7 mM, KCl, 1 mM MgCl2, 5 mM DTT, and 0.05% BSA) was prepared and added to each well of the 96-well round bottom assay plate. […]
At 0, 2, 5, 10, 15, 20, 25, 25, 30, 35, 40, 45, and 60 minutes, the reaction was stopped with 10% formic acid and the conversion of substrate to product was determined by mass spectrometry. The activity of SIRT1 at each concentration of DMSO was monitored by comparing the percent conversion of Acetylated Peptide Substrate to Deacetylated Peptide Product over time. […]
Product formation versus time was plotted for each concentration of DMSO tested. The rate was determined by taking the slope from the linear part of the time course. […]

SIRT1 [5] = target: T3, SIRT1; test: SIRT1 mass spectrometry assay (screening for activation); type: biochemical
SIRT1 [6] = target: T3, SIRT1; settings: Sirt1, Fluorescent; read-out: Peptide Km; cited from earlier work

For `O=C(NNc1c2ccccc2nc2ccccc12)c1cccnc1` [compound 11], the EC50 (NCI-H358 cells [1]; Homo sapiens, NCI-H358) was under 50 µM.

In the case of “p53 (aa 317-320) *FL (QPKK; also: fluorescent label; UniProt P04637 317-320, looked up, fragment)”, the Km (Sirt2) is listed as 186 µM and the Km (Sirt3) is listed as 32 µM.

In the case of `Oc1ccc(C=Cc2cc(O)cc(O)c2)cc1` [resveratrol], the “levels of mitochondrial mass biomarkers” value (NCI-H358 cells [2]) is reported as “increases in the levels of mitochondrial mass biomarkers”, the “decrease of Km for peptide substrate” value (SIRT1 [3]; 1.2 μM resveratrol) is reported as 2% and the “decrease of Km for peptide substrate” value (SIRT1 [3]; 3.7 μM resveratrol) is reported as 14%. For the same compound, the “decrease of Km for peptide substrate” value (SIRT1 [3]; 11 μM resveratrol) was 14%, the “decrease of Km for peptide substrate” value (SIRT1 [3]; 33 μM resveratrol) was 32% and the “decrease of Km for peptide substrate” value (SIRT1 [3]; 100 μM resveratrol) was 46%.

With `C[S+](C)[O-]` [DMSO] the “decrease of SIRT1 enzyme activity” value (SIRT1 [4]; 0.625% DMSO) was 9.1%, the “decrease of SIRT1 enzyme activity” value (SIRT1 [4]; 1.25% DMSO) was 21% and the “decrease of SIRT1 enzyme activity” value (SIRT1 [4]; 2.5% DMSO) was 36%.

For `Cc1nc(-c2cccc(Nc3nc4ccccc4s3)c2)cs1` [compound 94], the “FOLD ACTIVATION MS” value (SIRT1 [5]; activation of SIRT1, mass spectrometry) was “B (Fold Activation<250%)”, the EC50 (SIRT1 [5]; activation of SIRT1, 0.5 μM peptide substrate (SEQ ID NO: 34), 120 μM NAD+, 10 nM SIRT1, 25 min, read-out: ED50 MS ASSAY) was under 50 µM and the EC50 (NCI-H358 cells [1]; Homo sapiens, NCI-H358) was over 150 µM.

For `COc1cccc(OC)c1C(=O)Nc1cccc(-c2nc3ccccc3s2)c1` [compound 120], the EC50 (NCI-H358 cells [1]) was under 50 µM.

For “p53 (aa 379-382) *FL (RHKK(Ac); not fully specified (C-terminus); printed as Arg-His-Lys-Lys; also: fluorescent label; UniProt P04637 379-382, looked up, fragment)”, the Km (SIRT1 [6]) is listed as 64 µM.
